Results from publication PMC5218480 (PLoS ONE, 2017).

System: MV-4-11 cells
Test: Gene expression microarray analysis (Affymetrix PrimeView) and GSEA
Format: cell-based, human
Set-up: RFU PODN (11730768_x_at) / Fold change /veh PODN (11730768_x_at) / RFU LINC00158 (11744669_a_at) / Fold change /veh LINC00158 (11744669_a_at) / RFU DUSP10 (11751237_a_at) / Fold change /veh DUSP10 (11751237_a_at) / RFU ID3 (11757404_x_at) / Fold change /veh ID3 (11757404_x_at) / RFU PLEKHG5 (11737974_s_at) / Fold change /veh PLEKHG5 (11737974_s_at) / RFU LRRC4B (11730491_at) / Fold change /veh LRRC4B (11730491_at) / RFU GIMAP4 (11747438_a_at) / Fold change /veh GIMAP4 (11747438_a_at) / RFU KRT8 (11758183_x_at) / Fold change /veh KRT8 (11758183_x_at) / RFU CNN1 (11734310_a_at) / Fold change /veh CNN1 (11734310_a_at) / RFU VPS37D (11726825_at) / Fold change /veh VPS37D (11726825_at) / RFU C10orf10 (11716522_x_at) / Fold change /veh C10orf10 (11716522_x_at) / RFU KIR2DL2 /// KIR2DL4 /// KIR2DL5A /// KIR2DL5B /// KIR2DS1 /// KIR2DS2 /// KIR2DS3 /// KIR2DS4 /// KIR3DL3 /// KIR3DL3 /// KIR3DS1 (11738374_at) / Fold change /veh KIR2DL2 /// KIR2DL4 /// KIR2DL5A /// KIR2DL5B /// KIR2DS1 /// KIR2DS2 /// KIR2DS3 /// KIR2DS4 /// KIR3DL3 /// KIR3DL3 /// KIR3DS1 (11738374_at) / RFU C1QL1 (11718748_at) / Fold change /veh C1QL1 (11718748_at) / RFU TMPRSS4 (11747572_a_at) / Fold change /veh TMPRSS4 (11747572_a_at) / RFU HAMP (11756126_x_at) / Fold change /veh HAMP (11756126_x_at) / RFU RNFT2 (11725882_a_at) / Fold change /veh RNFT2 (11725882_a_at) / RFU NR4A2 (11747474_a_at) / Fold change /veh NR4A2 (11747474_a_at) / RFU ABCC12 (11746883_a_at) / Fold change /veh ABCC12 (11746883_a_at) / RFU TMEM136 (11760407_x_at) / Fold change /veh TMEM136 (11760407_x_at) / RFU CLDN22 /// WWC2 (11732394_at) / Fold change /veh CLDN22 /// WWC2 (11732394_at) / RFU HLA-DPB1 (11760878_x_at) / Fold change /veh HLA-DPB1 (11760878_x_at) / RFU SPINT1 (11716480_a_at) / Fold change /veh SPINT1 (11716480_a_at) / RFU GAP43 (11754022_s_at) / Fold change /veh GAP43 (11754022_s_at) / RFU A4GNT (11735810_at) / Fold change /veh A4GNT (11735810_at) / RFU PRB3 (11715151_x_at) / Fold change /veh PRB3 (11715151_x_at) / RFU TUBB4B (11761932_at) / Fold change /veh TUBB4B (11761932_at) / RFU CAPN14 (11732068_a_at) / Fold change /veh CAPN14 (11732068_a_at) / RFU TMCC2 (11721928_a_at) / Fold change /veh TMCC2 (11721928_a_at) / RFU IRGQ (11745062_a_at) / Fold change /veh IRGQ (11745062_a_at) / RFU FAM174B (11720279_a_at) / Fold change /veh FAM174B (11720279_a_at) / RFU TMPRSS4 (11748680_a_at) / Fold change /veh TMPRSS4 (11748680_a_at) / RFU FAM212B (11763350_a_at) / Fold change /veh FAM212B (11763350_a_at) / RFU PLEKHG5 (11743358_a_at) / Fold change /veh PLEKHG5 (11743358_a_at) / RFU ZSCAN30 (11745921_a_at) / Fold change /veh ZSCAN30 (11745921_a_at) / RFU CMKLR1 (11741424_a_at) / Fold change /veh CMKLR1 (11741424_a_at) / RFU LOC101060620 /// MAPK8IP1 (11723275_at) / Fold change /veh LOC101060620 /// MAPK8IP1 (11723275_at) / RFU SPTSSB (11747773_x_at) / Fold change /veh SPTSSB (11747773_x_at) / RFU PRSS12 (11739890_at) / Fold change /veh PRSS12 (11739890_at) / RFU BIN1 (11741810_x_at) / Fold change /veh BIN1 (11741810_x_at) / RFU WNT11 (11732464_a_at) / Fold change /veh WNT11 (11732464_a_at) / RFU C10orf10 (11716521_a_at) / Fold change /veh C10orf10 (11716521_a_at) / RFU C5orf56 (11738089_at) / Fold change /veh C5orf56 (11738089_at) / RFU CYB561 (11721691_x_at) / Fold change /veh CYB561 (11721691_x_at) / RFU ANKRD19P (11752326_a_at) / Fold change /veh ANKRD19P (11752326_a_at) / RFU OR2T12 /// OR2T33 /// OR2T8 (11738714_s_at) / Fold change /veh OR2T12 /// OR2T33 /// OR2T8 (11738714_s_at) / RFU VCAN (11748164_a_at) / Fold change /veh VCAN (11748164_a_at) / RFU JSRP1 (11732532_at) / Fold change /veh JSRP1 (11732532_at) / RFU KRTAP10-11 (11738290_x_at) / Fold change /veh KRTAP10-11 (11738290_x_at) / RFU MYO3A (11730013_a_at) / Fold change /veh MYO3A (11730013_a_at) / RFU EBF3 (11725865_a_at) / Fold change /veh EBF3 (11725865_a_at) / RFU CAMK2N1 (11719241_x_at) / Fold change /veh CAMK2N1 (11719241_x_at) / RFU C5orf56 (11738088_a_at) / Fold change /veh C5orf56 (11738088_a_at) / RFU OLFML3 (11715873_a_at) / Fold change /veh OLFML3 (11715873_a_at) / RFU LOC100653217 /// NTM (11731650_a_at) / Fold change /veh LOC100653217 /// NTM (11731650_a_at) / RFU MAPK11 (11762145_a_at) / Fold change /veh MAPK11 (11762145_a_at) / RFU FIZ1 (11724087_x_at) / Fold change /veh FIZ1 (11724087_x_at) / RFU OASL (11726364_x_at) / Fold change /veh OASL (11726364_x_at) / RFU SOX15 (11748057_x_at) / Fold change /veh SOX15 (11748057_x_at) / RFU CD79A (11719716_a_at) / Fold change /veh CD79A (11719716_a_at) / RFU HIST1H1D (11736915_at) / Fold change /veh HIST1H1D (11736915_at) / RFU CASKIN2 (11723855_a_at) / Fold change /veh CASKIN2 (11723855_a_at) / RFU LOC730098 (11760151_x_at) / Fold change /veh LOC730098 (11760151_x_at) / RFU OR4N2 (11742367_at) / Fold change /veh OR4N2 (11742367_at) / RFU PRRT2 (11749266_a_at) / Fold change /veh PRRT2 (11749266_a_at) / RFU SNX32 (11753110_a_at) / Fold change /veh SNX32 (11753110_a_at) / RFU CDHR5 (11726645_a_at) / Fold change /veh CDHR5 (11726645_a_at) / RFU RCAN1 (11760418_a_at) / Fold change /veh RCAN1 (11760418_a_at) / RFU FAM167A (11723789_a_at) / Fold change /veh FAM167A (11723789_a_at) / RFU FAM26E (11764081_at) / Fold change /veh FAM26E (11764081_at) / RFU ISYNA1 (11749810_s_at) / Fold change /veh ISYNA1 (11749810_s_at) / RFU ACY1 (11761880_at) / Fold change /veh ACY1 (11761880_at) / RFU 11764098_at / Fold change /veh 11764098_at / RFU SAMD14 (11745864_x_at) / Fold change /veh SAMD14 (11745864_x_at) / RFU NPB (11741838_a_at) / Fold change /veh NPB (11741838_a_at) / RFU TMPRSS6 (11731388_a_at) / Fold change /veh TMPRSS6 (11731388_a_at) / RFU KRTAP10-2 (11738614_at) / Fold change /veh KRTAP10-2 (11738614_at) / RFU ARHGAP8 /// PRR5-ARHGAP8 (11727945_x_at) / Fold change /veh ARHGAP8 /// PRR5-ARHGAP8 (11727945_x_at) / RFU KRTAP5-7 /// NADSYN1 (11734609_at) / Fold change /veh KRTAP5-7 /// NADSYN1 (11734609_at) / RFU RASL12 (11751679_a_at) / Fold change /veh RASL12 (11751679_a_at) / RFU CDKN2B (11736163_a_at) / Fold change /veh CDKN2B (11736163_a_at) / RFU PRF1 (11729649_at) / Fold change /veh PRF1 (11729649_at) / RFU, ZNF638 /// ZNF638-IT1 / Fold change vs veh, ZNF638 /// ZNF638-IT1 / RFU, PANK3 / Fold change vs veh, PANK3 / RFU, SH3YL1 / Fold change vs veh, SH3YL1 / RFU, ZEB2 / Fold change vs veh, ZEB2 / RFU, NRIP1 / Fold change vs veh, NRIP1 / RFU, PTTG1IP / Fold change vs veh, PTTG1IP / RFU, CAPN2 / Fold change vs veh, CAPN2 / RFU, MED14 / Fold change vs veh, MED14 / RFU, SNORA58 / Fold change vs veh, SNORA58 / RFU, C1orf63 / Fold change vs veh, C1orf63 / RFU, LRRFIP1 / Fold change vs veh, LRRFIP1 / RFU, NDUFAF7 / Fold change vs veh, NDUFAF7 / RFU, SLC12A2 / Fold change vs veh, SLC12A2 / RFU, IBTK / Fold change vs veh, IBTK / RFU, ESF1 / Fold change vs veh, ESF1 / Fold change vs veh, TMEM50B / RFU, TAOK1 / Fold change vs veh, TAOK1 / RFU, ACBD3 / Fold change vs veh, ACBD3 / RFU, TMA16 / Fold change vs veh, TMA16 / RFU, RWDD3 / Fold change vs veh, RWDD3 / RFU, BCAT1 / Fold change vs veh, BCAT1 / RFU, EDEM3 / Fold change vs veh, EDEM3 / RFU, TMEM33 / Fold change vs veh, TMEM33 / RFU, WDR75 / Fold change vs veh, WDR75 / RFU, AHCTF1 / Fold change vs veh, AHCTF1 / RFU, TFRC / Fold change vs veh, TFRC / RFU, ZDHHC17 / Fold change vs veh, ZDHHC17 / RFU, NOM1 / Fold change vs veh, NOM1 / RFU, ARL8B / Fold change vs veh, ARL8B / RFU, ZBTB11 / Fold change vs veh, ZBTB11 / RFU, TAMM41 / Fold change vs veh, TAMM41 / RFU, KIAA1704 /// LOC100996395 / Fold change vs veh, KIAA1704 /// LOC100996395 / RFU, ING1 / Fold change vs veh, ING1 / RFU, TRMT61B / Fold change vs veh, TRMT61B / RFU, FUBP3 / Fold change vs veh, FUBP3 / RFU, TP53 / Fold change vs veh, TP53 / RFU, TNKS2 / Fold change vs veh, TNKS2 / RFU, ZFP14 / Fold change vs veh, ZFP14 / RFU, ACTR2 / Fold change vs veh, ACTR2 / RFU, PPP3R1 / Fold change vs veh, PPP3R1 / RFU, PIK3R1 / Fold change vs veh, PIK3R1 / RFU, HNRNPA1 / Fold change vs veh, HNRNPA1 / RFU, RNF170 / Fold change vs veh, RNF170 / RFU, ZNF28 / Fold change vs veh, ZNF28 / RFU, RNGTT / Fold change vs veh, RNGTT / RFU, OGT / Fold change vs veh, OGT / RFU, BRD1 / Fold change vs veh, BRD1 / RFU, MARS / Fold change vs veh, MARS / RFU, ZNF655 / Fold change vs veh, ZNF655 / RFU, FAHD1 / Fold change vs veh, FAHD1 / RFU, BDP1 / Fold change vs veh, BDP1 / RFU, LRRCC1 / Fold change vs veh, LRRCC1 / RFU, ARID1A / Fold change vs veh, ARID1A / RFU, ZNF146 / Fold change vs veh, ZNF146 / RFU, ZNF330 / Fold change vs veh, ZNF330 / RFU, GPN3 / Fold change vs veh, GPN3 / RFU, C9orf123 / Fold change vs veh, C9orf123 / RFU, N4BP2L2 / Fold change vs veh, N4BP2L2 / RFU, ARFIP1 / Fold change vs veh, ARFIP1 / RFU, FAM179B / Fold change vs veh, FAM179B / RFU, BCL10 / Fold change vs veh, BCL10 / RFU, UHRF1BP1L / Fold change vs veh, UHRF1BP1L / RFU, BET1 / Fold change vs veh, BET1 / RFU, CNOT2 / Fold change vs veh, CNOT2 / RFU, ZNF268 / Fold change vs veh, ZNF268 / Fold change vs veh, ZNF507 / RFU, DGCR2 / Fold change vs veh, DGCR2 / RFU, WDSUB1 / Fold change vs veh, WDSUB1 / Fold change vs veh, HSP90B1 /// MIR3652 / RFU, ADSS / Fold change vs veh, ADSS / RFU, GK / Fold change vs veh, GK / RFU, ZNF148 / Fold change vs veh, ZNF148 / RFU, TAF9 / Fold change vs veh, TAF9 / RFU, SLC1A5 / Fold change vs veh, SLC1A5 / RFU, SLMO2 / Fold change vs veh, SLMO2 / RFU, ABCC4 / Fold change vs veh, ABCC4 / RFU, LOC101060439 /// RAP1B / Fold change vs veh, LOC101060439 /// RAP1B / RFU, RFX7 / Fold change vs veh, RFX7 / RFU, GTPBP10 / Fold change vs veh, GTPBP10 / RFU, CNEP1R1 / Fold change vs veh, CNEP1R1 / RFU, BIVM-ERCC5 /// ERCC5 / Fold change vs veh, BIVM-ERCC5 /// ERCC5 / RFU, ILF3 / Fold change vs veh, ILF3 / RFU 11762660_at / Fold change /veh 11762660_at / RFU VCAN (11757783_s_at) / Fold change /veh VCAN (11757783_s_at) / RFU DDX43 (11728927_at) / Fold change /veh DDX43 (11728927_at) / RFU KRT8 (11758188_x_at) / Fold change /veh KRT8 (11758188_x_at) / RFU NKD1 (11759106_at) / Fold change /veh NKD1 (11759106_at) / RFU SRD5A1 (11742802_a_at) / Fold change /veh SRD5A1 (11742802_a_at) / RFU TPSAB1 /// TPSB2 (11721975_s_at) / Fold change /veh TPSAB1 /// TPSB2 (11721975_s_at) / RFU GSTM3 (11746129_a_at) / Fold change /veh GSTM3 (11746129_a_at) / RFU IL23R (11737362_x_at) / Fold change /veh IL23R (11737362_x_at) / RFU TMEM51 (11727254_a_at) / Fold change /veh TMEM51 (11727254_a_at) / RFU PIWIL2 (11732686_x_at) / Fold change /veh PIWIL2 (11732686_x_at) / RFU ORM1 (11744905_x_at) / Fold change /veh ORM1 (11744905_x_at) / RFU CCDC152 (11743942_at) / Fold change /veh CCDC152 (11743942_at) / RFU ECM1 (11717891_a_at) / Fold change /veh ECM1 (11717891_a_at) / RFU IL23R (11748794_a_at) / Fold change /veh IL23R (11748794_a_at) / RFU TNFAIP8L3 (11732012_x_at) / Fold change /veh TNFAIP8L3 (11732012_x_at) / RFU MBOAT4 (11741988_at) / Fold change /veh MBOAT4 (11741988_at) / RFU 11764193_at / Fold change /veh 11764193_at / RFU TMEM53 (11763286_at) / Fold change /veh TMEM53 (11763286_at) / RFU MAGEB2 (11727129_at) / Fold change /veh MAGEB2 (11727129_at) / RFU TMEM200A (11744735_a_at) / Fold change /veh TMEM200A (11744735_a_at) / RFU CCDC152 (11751479_a_at) / Fold change /veh CCDC152 (11751479_a_at) / RFU FAM211A (11726209_a_at) / Fold change /veh FAM211A (11726209_a_at) / RFU RGS16 (11746705_a_at) / Fold change /veh RGS16 (11746705_a_at) / RFU VCAN (11755009_s_at) / Fold change /veh VCAN (11755009_s_at) / RFU RHOB (11743442_s_at) / Fold change /veh RHOB (11743442_s_at) / RFU RGS16 (11720943_a_at) / Fold change /veh RGS16 (11720943_a_at) / RFU RGS16 (11720944_at) / Fold change /veh RGS16 (11720944_at) / RFU, VPS4B / Fold change vs veh, VPS4B / RFU, CREB1 / Fold change vs veh, CREB1 / RFU, DNAJC13 / Fold change vs veh, DNAJC13 / RFU, GNAQ / Fold change vs veh, GNAQ / RFU, CDK5R1 / Fold change vs veh, CDK5R1 / RFU, ZRANB3 / Fold change vs veh, ZRANB3 / RFU, CUL4A / Fold change vs veh, CUL4A / RFU, CCNY / Fold change vs veh, CCNY / RFU, UFL1 / Fold change vs veh, UFL1 / RFU, COG3 / Fold change vs veh, COG3 / RFU, DIAPH2 / Fold change vs veh, DIAPH2 / RFU, SKA2 / Fold change vs veh, SKA2 / RFU, AFF3 / Fold change vs veh, AFF3 / RFU, LMF1 / Fold change vs veh, LMF1 / RFU, IPO11 / Fold change vs veh, IPO11 / RFU, DFFB / Fold change vs veh, DFFB / RFU, FOXP1 / Fold change vs veh, FOXP1 / RFU, CARD8 / Fold change vs veh, CARD8 / RFU, STRN3 / Fold change vs veh, STRN3 / RFU, ADK / Fold change vs veh, ADK / RFU, RASSF2 / Fold change vs veh, RASSF2 / RFU, WIPF1 / Fold change vs veh, WIPF1 / RFU, LARP1B / Fold change vs veh, LARP1B / RFU, RASA1 / Fold change vs veh, RASA1 / RFU, RB1 / Fold change vs veh, RB1 / RFU, PPFIA1 / Fold change vs veh, PPFIA1 / RFU, MAT2A / Fold change vs veh, MAT2A / RFU, CCT5 / Fold change vs veh, CCT5 / RFU, WDR92 / Fold change vs veh, WDR92 / RFU, CUX1 / Fold change vs veh, CUX1 / RFU, TTC7A / Fold change vs veh, TTC7A / RFU, TMEM135 / Fold change vs veh, TMEM135 / RFU, DEPTOR / Fold change vs veh, DEPTOR / RFU, CPM / Fold change vs veh, CPM / RFU, DNAJB6 / Fold change vs veh, DNAJB6 / RFU, CACNA2D3 / Fold change vs veh, CACNA2D3 / RFU, DTX4 / Fold change vs veh, DTX4 / RFU, TFCP2 / Fold change vs veh, TFCP2 / RFU, GMCL1 /// GMCL1P1 / Fold change vs veh, GMCL1 /// GMCL1P1 / RFU, AEBP2 / Fold change vs veh, AEBP2 / RFU, SNHG1 /// SNORD22 /// SNORD25 /// SNORD26 /// SNORD27 /// SNORD28 /// SNORD29 /// SNORD31 / Fold change vs veh, SNHG1 /// SNORD22 /// SNORD25 /// SNORD26 /// SNORD27 /// SNORD28 /// SNORD29 /// SNORD31 / Fold change (Aza/veh), C12orf56 (ProbeSet 11735607_a_at) / Fold change (ACY-1035/veh), C12orf56 (ProbeSet 11735607_a_at) / Fold change (Aza/veh), FGFR1OP (ProbeSet 11751329_s_at) / Fold change (ACY-1035/veh), FGFR1OP (ProbeSet 11751329_s_at) / Fold change (Aza/veh), VPS36 (ProbeSet 11739960_a_at) / Fold change (ACY-1035/veh), VPS36 (ProbeSet 11739960_a_at) / RFU SYPL1 (11715823_x_at) / Fold change /veh SYPL1 (11715823_x_at) / RFU IGFBP7 (11715501_s_at) / Fold change /veh IGFBP7 (11715501_s_at) / RFU REEP3 (11722064_at) / Fold change /veh REEP3 (11722064_at) / RFU IGLL1 (11728026_x_at) / Fold change /veh IGLL1 (11728026_x_at): dose or concentration left out as unconfirmed
Conditions: MV-4-11 cells, 48 hours

## Nc1ncn([C@@H]2O[C@H](CO)[C@@H](O)[C@H]2O)c(=O)n1 [azacitidine]
  Fold change /veh ACY1 (11761880_at): 1.09
